Reference: patent US8173133B2, “Acyl pseudodipeptides which carry a functionalized auxiliary arm” (OM Pharma, priority 1999, dated 2012)
Several values for one entry are separate records, joined by “and”; a condition that tells them apart may be missing. Equal values may be shown once.

Key:
[1] = system: HIV-2 ROD; assay: anti-HIV activity in MT-4 cells (MTT), HIV-2 ROD; type: cell-based
Method: (§1) T MT-4 lymphocyte cell line which had been transformed into a continuous cell line by an HTLV infection, a virus associated with one form of leukemia, was used to test the antiviral activity (anti-HIV) of AZT- and d4T-conjugated compounds according to the invention, respectively. A characteristic feature of such cells is lack of survival following an HIV infection. The test is based on protection provided by the product (like AZT) against this viral destructive effect. Products were tested in serially diluted solutions in a 96-well plate. In the upper portion of the microplate, products were tested by incubation at various concentrations with cells and virus (in triplicate), so as to determine the concentration of product which affords cell protection against the viral destructive effect. IC50 of the product is taken as the concentration where a 50% loss of viable cell count is recorded. Viable cell count was done with MTT, a yellow tetrazolium compound which undergoes enzymatic reduction (at the mitochondrial level in viable cells) into a purple colored formazan compound. Wells containing viable cells are purple in colour, whereas dead cells give a persistent yellow color. Measurement of optical density (O.D.) allows this effect to be quantified.

[2] = system: MT-4 cells; assay: cytotoxicity on virus-free MT-4 cells (MTT); type: cell-based
Method: Cytotoxicity of a given product is assessed in the same manner in the lower portion of the plate where the test is conducted by incubating serially diluted products over virus-free cells, to thereby determine the toxic effect of products on cells. The result is given as CC50, i.e. the concentration at which 50% of cells are dead due to product toxicity. Selectivity (selectivity index, SI) of a given product is defined as a CC50/IC50 ratio. This parameter is of great importance since the selectivity index of a fairly efficient product is high.

[3] = system: HIV-1 IIIB; assay: anti-HIV activity in MT-4 cells (MTT), HIV-1 IIIB; type: cell-based
Method: as §1

[4] = system: Leishmania LmCPb antigen; assay: Leishmania LmCPb immunization: lymph node cell proliferation (3H-TdR); type: in vivo, CBA mice; design: scale not given here
Method: (§2) CBA mice were administered through the tail a single subcutaneous injection (100 μl) of Leishmania parasite LmCPb antigen (3 μg per mouse)±adjuvant. […] Eleven days after injection, inguinal and periaortic lymph node cells (2 groups of 3 mice each) were cultured in triplicate in presence of purified LmCPb antigen or whole extract of the parasite (amastigote). At day 4, a supernatant sample is withdrawn and stored at −20° C. for IL-4 and γ IFN assay. Finally, tritiated thymidine (^3H-TdR) is added to the cultures to measure the proliferation reaction.
(§3) Cytokine assay is carried out by a sandwich ELISA assay (OptEIA®) kits for γ IFN and IL-4, BD, PharMingen, Basel, Switzerland) and the proliferation response is determined by measuring thymidine take-up (^3H-TdR). ^3H-TdR take-up given in cpm as the arithmetic mean value±standard deviation ([…] of 3 mice each) and IL-4 concentration given in pg/ml are individually reported for each pool of 3 mice as the arithmetic mean of two measurements (cytokine assay).
(§4) An LmCPb stock solution is prepared at a concentration of 150 μg/ml in PBS
(§5) Adjuvants: The stock solution of OM-294-MP-AC is prepared at a concentration of 0.9 mg/ml in water for injection, with addition of 0.1% triethanolamine.
(§6) Antigen-adjuvant mixture: Adjuvant preparation (4 volumes), which had been adjusted to an adequate final concentration in sterile PBS, is mixed just prior to injection with the antigen stock solution (1 volume).

[5] = system: MxA protein; assay: MxA protein induction in dendritic cells (Western blot); type: cell-based, human; settings: 1 μg/ml; after 24 hr and 48 hours; FIGS. 77, 78
Method: The ability of products of the invention to induce production of antiviral MxA protein by predendritic cells has been assessed. MxA production by cells was measured after an SDS-PAGE electrophoretic separation by a Western Blot assay
Extraction and analysis of protein was conducted as follows: cells were harvested, then washed 3 times with PBS (phosphate buffered saline) and lyzed with a 100 Mm Tris-HCl buffer, 150 mM NaCl, 5 mM EDTA, 1% Triton-100 containing 1 mM PMSF (phenylmethylsulphonyl fluoride) and 1 μ/ml of pepstatin as protease inhibitors. Lysis was carried out at a density of 10^6 cells for 100 μl of (5×) buffer containing 60 mM Tris-HCl (pH 6.8), 10% glycerol, 2% SDS, 14.4 mM 2-mercaptoethanol and 0.1% bromophenol). Samples were heated up to 95° C. for 5 min. in sealed Eppendorf tubes. Electrophoresis was performed on a 10 cm×10 cm 12% acrylamide minigel by running a sample having the same number of cells. Migration was effected with the following buffer: 25 mM Tris, 192 mM glycine, 0.1% SDS, pH 8.3. […]
Non specific bonding sites on the membrane were blocked with 5% skimmed milk in TBS (10 mM Tris-HCl, 150 Mm NaCl, pH 7.4) and allowing to stand for 1 hour at room temperature. […] In this system, HRP catalyzes a luminol-mediated chemiluminescent reaction which can be detected on a photographic film. […]

[6] = system: dendritic cells; assay: in vivo maturation and migration of dendritic cells into the spleen; design: species or system mice; settings: i.v. 20 μg and s.c. 5 μg per mouse
Excerpt: Immunostaining of histological slides taken from spleen of animals treated with products of the invention reveal colocalization of mature dendritic cells and T cells in the […], as is seen with LPS treatment, whereas in untreated animals, no migration and maturation are observed.

[7] = system: Limulus Amoebocyte Lysate
[8] = system: Leishmania LmCPb antigen; assay: Leishmania LmCPb immunization: IL-4 and γ IFN in lymph node cell supernatant (ELISA); type: in vivo, CBA mice; settings: pools a and b
Method: as §2, §3, §4, §5, §6

[9] = system: Spleenic cells; assay: murine spleenic cell proliferation (3H-TdR take-up); type: cell-based, CBA mice; settings: for increase of thymidine take-up: one day of culture
Method: Cell proliferation response is assessed by measuring triturated thymidine (^3H-TdR) take-up after 1 or 2 days of culture. Values reported in the table stand for the arithmetic mean±standard deviation of 4 cultures.

[10] = system: K562 cells; assay: activation of NK cell cytotoxicity against K562 target cells (LDH release); type: cell-based, human
Method: PBMC were recovered from buffy coats according to the procedure previously described in example 4.6. […] Cells were incubated under such conditions for 24 hours. K562 cells (human leukemia cell line, ATCC #CCL 243, 20110-2209 Manassas (Va.), U.S.A.) were maintained in culture using RPMI medium containing 10% FCS and subjected to 2 passages per week.
In order to make cytotoxicity measurement, PBMC and K562 cells were washed twice in HBSS and resuspended in Phenol Red-free RPMI medium containing 5% FCS. PBMC were divided into a round bottom 96-well plate so as to achieve a PBMC/target ratio of 20/1, 10/1 and 5/1 in 50 μl volume. 5000 K562 cells (target) were added in each well using 50 μl of Phenol Red-free RPMI. Final volume was 100 μl. The plate was centrifuged to promote contact then incubated at 37° C. for 4 hours.
Cytotoxicity was assayed using a non radioactive CytoTox 96 kit based on measuring LDH release during cell lysis (kit #G1780, batch #124100, Promega, Madison, Wis.) according to the supplier's instructions.
The percentage of cytotoxicity was calculated according to the following equation: […]

`Cc1cn([C@H]2C[C@H](N=[N+]=[N-])[C@@H](CO)O2)c(=O)[nH]c1=O` [AZT, reference compound] showed an IC50 [1] of 1.8 nM, a CC50 [2] of 187 µM and an IC50 [3] of 2.9 nM.
For `Cc1cn([C@H]2C=C[C@@H](CO)O2)c(=O)[nH]c1=O` [Example D4T, reference compound], the IC50 [1] was 220 nM, the CC50 [2] was 321 µM and the IC50 [3] was 107 nM.
`CCCCCCCCCCCC(=O)O[C@H](CCCCCCCCCCC)CC(=O)NC(CCOP(=O)(O)O)C(=O)NCCCC(COC(=O)CCCCCN)NC(=O)C[C@H](O)CCCCCCCCCCC` (stereo partly drawn) [OM-197-MP-AC, 3-[(R)-3-dodecanoyloxytetra-decanoylamino]-4-oxo-5-aza-9-[(R)-3-hydroxytetradecanoylamino]-1,10-diol-dihydrogenphosphate 10-(6-aminohexanoate)] gave a triturated thymidine take-up ([4]; adjuvant 50 μg s.c. with LmCPb, in vitro: No challenge) of 0.7 ± 0.1 CPM, a triturated thymidine take-up ([4]; in vitro challenge Amastigotes 2 ×10^−6/ml) of 1.6 ± 0.3 CPM and a triturated thymidine take-up ([4]; in vitro challenge Amastigotes 6 ×10^−6/ml) of 5.3 ± 1.5 CPM. The triturated thymidine take-up ([4]; in vitro challenge Amastigotes 17 ×10^−6/ml) was 12.6 ± 2.5 CPM, the triturated thymidine take-up ([4]; in vitro challenge Amastigotes 50 ×10^−6/ml) was 32.6 ± 5.2 CPM and the triturated thymidine take-up ([4]; in vitro challenge Con A 5 μg/ml) was 208.5 ± 56.0 CPM. For the same compound, the triturated thymidine take-up ([4]; in vitro challenge LmCPb 0.6 μg/ml) was 1.3 ± 0.5 CPM, the triturated thymidine take-up ([4]; in vitro challenge LmCPb 5 μg/ml) was 3.0 ± 1.1 CPM and the triturated thymidine take-up ([4]; in vitro challenge LmCPb 15 μg/ml) was 7.0 ± 0.7 CPM. For the same compound, the “production of MxA protein” value [5] was “significant rise”, the “maturation and migration of dendritic cells in spleen” value [6] was “induce maturation and migration of dendritic cells into the spleen” and the “LAL EU/mg of product” value [7] was 6 EU/mg of product. For the same compound, the “LAL ng of LPS equivalent per mg of product” value [7] was 0.48 ng of LPS equivalent per mg of product, the IL-4 production ([8]; No challenge) was <8 pg/mL and the IL-4 production ([8]; in vitro challenge Amastigotes, first pair of lines) was 55 pg/mL and 70 pg/mL. For the same compound, the IL-4 production ([8]; in vitro challenge Amastigotes, second pair of lines) was 29 pg/mL and 28 pg/mL, the IL-4 production ([8]; in vitro challenge Con A) was 103 pg/mL and 102 pg/mL and the IL-4 production ([8]; in vitro challenge LmCPb) was 12 pg/mL and 13 pg/mL. It also gave a 3H-TdR take-up ([9]; 0.1 μg/ml, incubation 1 day) of 8.7 ± 0.7 CPM × 10^−3, a 3H-TdR take-up ([9]; 0.1 μg/ml, incubation 2 days) of 21.1 ± 1.3 CPM × 10^−3 and a 3H-TdR take-up ([9]; 1 μg/ml, incubation 1 day) of 34.3 ± 2.6 CPM × 10^−3. For the same compound, the 3H-TdR take-up ([9]; 1 μg/ml, incubation 2 days) was 55.6 ± 5.2 CPM × 10^−3, the “increase of thymidine take-up” value ([9]; 1 μg/ml) was 5 fold and the 3H-TdR take-up ([9]; 10 μg/ml, incubation 1 day) was 79.0 ± 12 CPM × 10^−3. The 3H-TdR take-up ([9]; 10 μg/ml, incubation 2 days) was 92.7 ± 8.8 CPM × 10^−3, the “increase of thymidine take-up” value ([9]; 10 μg/ml) was 12 fold and the “NK activity level” value ([10]; 1 μg/ml) was “comparable or slightly inferior to that induced by LPS”. The “% cytotoxicity” value ([10]; Ratio PBMC:K562 5.1) was 7.4%, the “Optical density at 490 nm, K562 + PBMC” value ([10]; Ratio PBMC:K562 5.1) was 1.5 and the “Optical density at 490 nm, PBMC alone” value ([10]; Ratio PBMC:K562 5.1) was 0.027. For the same compound, the “% cytotoxicity” value ([10]; Ratio PBMC:K562 10.1) was 13.7%, the “Optical density at 490 nm, K562 + PBMC” value ([10]; Ratio PBMC:K562 10.1) was 1.66 and the “Optical density at 490 nm, PBMC alone” value ([10]; Ratio PBMC:K562 10.1) was 0.084. The “% cytotoxicity” value ([10]; Ratio PBMC:K562 20.1) was 22%, the “Optical density at 490 nm, K562 + PBMC” value ([10]; Ratio PBMC:K562 20.1) was 1.8 and the “Optical density at 490 nm, PBMC alone” value ([10]; Ratio PBMC:K562 20.1, stimulus 24 hours) was 0.084.
